Results on three compounds are retold here after patent publication US6528456B2, “Herbicidal 2-pyrazolyl-6-aryloxypyri(mi)dines” (BASF Aktiengesellschaft, priority 1999, dated 2003).

Common to all, as to format: in vivo
The subject of series [1] is Galium aparine. Kind of series: Pre-emergence test. As to conditions: 3 weeks after treatment. The protocol: (§1) To evaluate their herbicidal activity, compounds according to the invention are tested using a representative range of plants: GALAP Galium aparine The pre-emergence tests involve spraying a liquid formulation of the compound onto the soil in which the seeds of the plant species mentioned above has recently been sown. The soil used in the tests is a prepared horticultural loam. The formulations used in the tests are prepared from solutions of the test compounds in acetone containing 0.4% by weight of an alkylphenol/ethylene oxide condensate available under the trade mark TRITON X-155. These acetone solutions are diluted with water and the resulting formulations applied at dosage levels corresponding to 0.025 kg, 0.100 kg or 0.400 kg of active material per hectare in a volume equivalent to 900 litres per hectare. In these tests untreated sown soil are used as controls. From 2 to 4 weeks after treatment, the tests are terminated and each pot is examined and rated according to the rating system set forth below: [table]

In series [2] the test system is Echinochloa crus-galli. Nature of the series: Post-emergence test. As to conditions: 2-4 weeks after treatment. How it is done: To evaluate their herbicidal activity, compounds according to the invention are tested using a representative range of plants: ECHCG Echinochloa crus-galli [table] […] These acetone solutions are diluted with water and the resulting formulations applied at dosage levels equivalent of about 0.1 to 0. 4 kg per hectare of test compound per pot. After spraying the plants are placed on greenhouse benches and are cared for in the usual manner, commensurate with conventional greenhouse practices. From 2 to 4 weeks after treatment, the seedling plants are examined and rated according to the rating system provided above.

The subject of series [3] is Abutilon theophrasti. Kind of series: Pre-emergence test. As to conditions: 3 weeks after treatment. How it is done:
as §1, with “ABUTH Abutilon theophrasti” for “GALAP Galium aparine”

The subject of series [4] is Glycine max. Nature of the series: Pre-emergence test. As to conditions: 3 weeks after treatment. The protocol: To evaluate their herbicidal activity, compounds according to the invention are tested using a representative range of plants:
The pre-emergence tests involve spraying a liquid formulation of the compound onto the soil in which the seeds of the plant species mentioned above has recently been sown.
as §1, with “The” for “To evaluate their herbicidal activity, compounds according to the invention are tested using a representative range of plants: GALAP Galium aparine The pre-emergence tests involve spraying a liquid formulation of the compound onto the soil in which the seeds of the plant species mentioned above has recently been sown. The”, “[table]” left out

For series [5], the system named is Ipomoea hederacea. Nature of the series: Pre-emergence test. The note with it: 3 weeks after treatment. How it is done: as §1, with “IPHOE Ipomoea hederacea” for “GALAP Galium aparine”
In series [6] the test system is Alopecurus myosuroides. Nature of the series: Pre-emergence test. The note with it: 3 weeks after treatment. How it is done: as §1, with “ALOMY Alopecurus myosuroides” for “GALAP Galium aparine”
Series [7] relates to soybeans, wheat. Kind of series: Crop selectivity in pre- and post-emergence application. The note with it: dose of 0.1 kg/ha. How it is done:
(§2) The pre-emergence tests involve spraying a liquid formulation of the compound onto the soil in which the seeds of the plant species mentioned above has recently been sown. The soil used in the tests is a prepared horticultural loam. The formulations used in the tests are prepared from solutions of the test compounds in acetone containing 0.4% by weight of an alkylphenol/ethylene oxide condensate available under the trade mark TRITON X-155. These acetone solutions are diluted with water and the resulting formulations applied at dosage levels corresponding to 0.025 kg, 0.100 kg or 0.400 kg of active material per hectare in a volume equivalent to 900 litres per hectare. In these tests untreated sown soil are used as controls. […] These acetone solutions are diluted with water and the resulting formulations applied at dosage levels equivalent of about 0.1 to 0. 4 kg per hectare of test compound per pot. After spraying the plants are placed on greenhouse benches and are cared for in the usual manner, commensurate with conventional greenhouse practices. From 2 to 4 weeks after treatment, the seedling plants are examined and rated according to the rating system provided above.

In series [8] the test system is weeds. Kind of series: Overall weed control in pre- and post-emergence application. The note with it: dose of 0.1 kg/ha. How it is done:
as §2

As for `Cc1cc(Oc2cccc(C(F)(F)F)c2)nc(-c2cc(C(F)(F)F)nn2C)c1` [Example 63], the GALAP herbicidal rating in series [1] (0.025 kg/ha) is on record as 0 (0 - No effect); in series [1] (0.100 kg/ha) it was 0 (0 - No effect); in series [1] (0.400 kg/ha) it was 1 (1 - Trace effect). For the same compound, the ECHCG herbicidal rating in series [2] (0.1 kg/ha) and in series [2] (0.4 kg/ha) was 3 (3 - Moderate effect) in each case. The ABUTH herbicidal rating is reported as 0 (0 - No effect) in series [3] (0.100 kg/ha) and 2 (2 - Slight effect) in series [3] (0.400 kg/ha). Also, the GLXMA herbicidal rating in series [4] (0.025 kg/ha), in series [4] (0.100 kg/ha) and in series [4] (0.400 kg/ha) was 0 (0 - No effect) each time. For the same compound, the IPOHE herbicidal rating in series [5] (0.025 kg/ha) is recorded as 0 (0 - No effect); in series [5] (0.100 kg/ha), 0 (0 - No effect); in series [5] (0.400 kg/ha), 3 (3 - Moderate effect). Besides, the ALOMY herbicidal rating is given as 0 (0 - No effect) in series [6] (0.025 kg/ha), 1 (1 - Trace effect) in series [6] (0.100 kg/ha) and 5 (5 - Definite injury) in series [6] (0.400 kg/ha).

For `Cc1cnc(-c2cc(C(F)(F)F)nn2C)nc1Oc1cc(C(F)(F)F)nn1C` [Example 4, 2-(1-Methyl-3-trifluoromethylpyrazol-5-yl)-6-(1-methyl-3-trifluoromethylpyrazol-5-yloxy)-5-methylpyrimidine], the GALAP herbicidal rating is 1 (1 - Trace effect) in series [1] (0.025 kg/ha) and 8 (8 - Approaching complete kill) in series [1] (0.400 kg/ha). Moreover, the ECHCG herbicidal rating in series [2] (0.1 kg/ha) and in series [2] (0.4 kg/ha) was 8 (8 - Approaching complete kill) in each case. In addition, the figures for the ABUTH herbicidal rating in series [3] (0.025 kg/ha), in series [3] (0.100 kg/ha) and in series [3] (0.400 kg/ha) were 4 (4 - Injury), 7 (7 - Good herbicidal effect) and 9 (9 - Complete kill), respectively. Moreover, the results for the GLXMA herbicidal rating in series [4] (0.025 kg/ha), in series [4] (0.100 kg/ha) and in series [4] (0.400 kg/ha) were 2 (2 - Slight effect), 3 (3 - Moderate effect) and 4 (4 - Injury), respectively. In addition, the “tolerance in soybeans and wheat” value in series [7] is “well tolerated”. The IPOHE herbicidal rating is listed as 4 (4 - Injury) in series [5] (0.025 kg/ha), 6 (6 - Herbicidal effect) in series [5] (0.100 kg/ha) and 9 (9 - Complete kill) in series [5] (0.400 kg/ha). Moreover, the ALOMY herbicidal rating was 2 (2 - Slight effect) in series [6] (0.025 kg/ha), 6 (6 - Herbicidal effect) in series [6] (0.100 kg/ha) and 8 (8 - Approaching complete kill) in series [6] (0.400 kg/ha). Also, the “overall levels of weed control” value in series [8] is on record as “good overall levels of weed control”.

For the compound `Cn1nc(C(F)(F)F)cc1Oc1cc(C#N)cc(-c2cc(C(F)(F)F)nn2C)n1` [Example 3, 4-Cyano-2-(1-methyl-3-trifluoromethylpyrazol-5-yloxy)-6-(1-methyl-3-trifluoromethylpyrazol-5-yl)pyridine], the GALAP herbicidal rating in series [1] (0.025 kg/ha) was 1 (1 - Trace effect); in series [1] (0.100 kg/ha), 4 (4 - Injury); in series [1] (0.400 kg/ha), 8 (8 - Approaching complete kill). The ECHCG herbicidal rating in series [2] (0.1 kg/ha) and in series [2] (0.4 kg/ha) was 4 (4 - Injury) in each case. Besides, the ABUTH herbicidal rating was 1 (1 - Trace effect) in series [3] (0.025 kg/ha), 5 (5 - Definite injury) in series [3] (0.100 kg/ha) and 8 (8 - Approaching complete kill) in series [3] (0.400 kg/ha). Further, the GLXMA herbicidal rating in series [4] (0.025 kg/ha) is recorded as 0 (0 - No effect); in series [4] (0.100 kg/ha), 1 (1 - Trace effect); in series [4] (0.400 kg/ha), 3 (3 - Moderate effect). Besides, the “tolerance in soybeans and wheat” value in series [7] was “well tolerated”. For the same compound, the figures for the IPOHE herbicidal rating in series [5] (0.025 kg/ha), in series [5] (0.100 kg/ha) and in series [5] (0.400 kg/ha) were 2 (2 - Slight effect), 2 (2 - Slight effect) and 9 (9 - Complete kill), respectively. The ALOMY herbicidal rating is on record as 2 (2 - Slight effect) in series [6] (0.025 kg/ha), 3 (3 - Moderate effect) in series [6] (0.100 kg/ha) and 5 (5 - Definite injury) in series [6] (0.400 kg/ha). For the same compound, the “overall levels of weed control” value in series [8] is on record as “good overall levels of weed control”.
